Oligonucleotides are written 5' to 3', each unit as a sugar letter and its base; * is a phosphorothioate linkage, no mark a phosphodiester; rarer units and linkages stand in square brackets, end groups in braces. Plain capitals give the bases only. k = constrained ethyl (cEt); [5mC] = 5-methylcytosine; d = 2'-deoxy (DNA)
How the values were obtained:
total AR mRNA = experiment: Total (full-length) AR mRNA in C4-2B MR cells, free uptake; assay type: cell-based, human; conditions: 24 hrs; for Percent inhibition of full-length AR mRNA in C4-2B MR cells: free uptake
Procedure, shortened: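 Cells grown in RPMI1640 with 10% FBS received antisense oligonucleotides at 0.04, 0.20, 1.00 and 5.00 μM in the medium by free uptake, no transfection agent. After 24 hrs, total AR mRNA quantified by real-time qPCR with primer probe set RTS3559.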

TMPRSS2 mRNA = TMPRSS2 mRNA levels in LMR20 cells; assay type: cell-based, human; conditions: for TMPRSS2 mRNA levels (% baseline value) after treatment with DHT / TMPRSS2 mRNA levels (% baseline value) after treatment with R1881 / TMPRSS2 mRNA levels (% baseline value) of cells without AR agonist treatment: LMR20 cells; for TMPRSS2 mRNA levels (% baseline value) after treatment with DHT: DHT 10 nM 72 hrs; for TMPRSS2 mRNA levels (% baseline value) after treatment with R1881: R1881 10 nM 72 hrs; for TMPRSS2 mRNA levels (% baseline value) of cells without AR agonist treatment: no AR agonist
Method: LMR20 cells were plated at 1,500 cells per well in phenol red-free medium with CSS.

Substance | Percent inhibition of full-length AR mRNA in C4-2B MR cells (total AR mRNA; 0.04 μM) [%] | Percent inhibition of full-length AR mRNA in C4-2B MR cells (total AR mRNA; 0.20 μM) [%] | Percent inhibition of full-length AR mRNA in C4-2B MR cells (total AR mRNA; 1.00 μM) [%] | Percent inhibition of full-length AR mRNA in C4-2B MR cells (total AR mRNA; 5.00 μM) [%] | TMPRSS2 mRNA levels (% baseline value) after treatment with DHT (TMPRSS2 mRNA; ASO 0.04 μM) [% baseline value] | TMPRSS2 mRNA levels (% baseline value) after treatment with DHT (TMPRSS2 mRNA; ASO 0.20 μM) [% baseline value] | TMPRSS2 mRNA levels (% baseline value) after treatment with DHT (TMPRSS2 mRNA; ASO 1.0 μM) [% baseline value] | TMPRSS2 mRNA levels (% baseline value) after treatment with DHT (TMPRSS2 mRNA; ASO 5.0 μM) [% baseline value] | TMPRSS2 mRNA levels (% baseline value) after treatment with R1881 (TMPRSS2 mRNA; ASO 0.04 μM) [% baseline value] | TMPRSS2 mRNA levels (% baseline value) after treatment with R1881 (TMPRSS2 mRNA; ASO 0.20 μM) [% baseline value] | TMPRSS2 mRNA levels (% baseline value) after treatment with R1881 (TMPRSS2 mRNA; ASO 1.0 μM) [% baseline value] | TMPRSS2 mRNA levels (% baseline value) after treatment with R1881 (TMPRSS2 mRNA; ASO 5.0 μM) [% baseline value] | TMPRSS2 mRNA levels (% baseline value) of cells without AR agonist treatment (TMPRSS2 mRNA; ASO 0.04 μM) [% baseline value] | TMPRSS2 mRNA levels (% baseline value) of cells without AR agonist treatment (TMPRSS2 mRNA; ASO 0.20 μM) [% baseline value] | TMPRSS2 mRNA levels (% baseline value) of cells without AR agonist treatment (TMPRSS2 mRNA; ASO 1.0 μM) [% baseline value] | TMPRSS2 mRNA levels (% baseline value) of cells without AR agonist treatment (TMPRSS2 mRNA; ASO 5.0 μM) [% baseline value] | total AR transcript levels (total AR mRNA; C4-2B MR cells, 0.04-5.00 μM free uptake) | TMPRSS2 mRNA levels in LMR20 cells (TMPRSS2 mRNA; with or without DHT/R1881)
549372 (kA*kA*kG*dT*dT*dG*dT*dA*dG*dT*dA*dG*dT*k[5mC]*kG*k[5mC]) [compound 549372] | 35 | 47 | 88 | 91 |  |  |  |  |  |  |  |  |  |  |  |  |  | 
549458 (kG*kT*kT*dG*dA*dT*dT*dT*dA*dA*dT*dG*dG*kT*kT*kG) [compound 549458] | 41 | 78 | 94 | 97 | 127 | 119 | 106 | 91 | 137 | 119 | 96 | 96 | 110 | 85 | 54 | 62 |  | 
GTTGATTTAATGGTTG (all phosphorothioate, sugars by position not given here; further chemistry not fully specified) [ISIS 549458] |  |  |  |  |  |  |  |  |  |  |  |  |  |  |  |  | reduced total AR transcript levels in a dose dependent manner more extensively than treatment with ISIS 554221 | reduced PSA levels and TMPRSS2 more extensively than the LNA gapmer ISIS 554221 or MDV3100

From patent USRE48461E1, “Modulation of androgen receptor expression” (Ionis Pharmaceuticals, Inc., priority 2012, dated 2021)
